In ChEMBL document CHEMBL6096670, “Design, synthesis and biological evaluation of novel β-carbolines as antitumor agents via targeting autophagy in colorectal cancer” (Eur J Med Chem, 2025):
Calls of active or inactive are those of the source. The rule behind the calls is not given here.

Columns and labels:
[1] = tested on: A-375; assay: Antiproliferative activity against human A-375 cells assessed as inhibition of cell growth incubated for 48 hrs by MTT assay; type: functional, cell-based; conditions: A-375, 48 h
[2] = tested on: HT-29; assay: Antiproliferative activity against human HT-29 cells assessed as inhibition of cell growth incubated for 48 hrs by MTT assay; type: functional, cell-based; conditions: HT-29, 48 h
[3] = tested on: CWR22R; assay: Antiproliferative activity against human 22Rv1 cells assessed as inhibition of cell growth incubated for 48 hrs by MTT assay; type: functional, cell-based; conditions: 22Rv1, 48 h
[4] = tested on: HCT-116; assay: Induction of apoptosis in human HCT-116 assessed as early apoptotic cells at 1 uM incubated for 24 hrs Annexin V FITC/PI double staining based flow cytometry (reference value: 1.07 %); type: functional
[5] = tested on: HCT-116; assay: Induction of apoptosis in human HCT-116 assessed as early apoptotic cells at 2 uM incubated for 24 hrs Annexin V FITC/PI double staining based flow cytometry (reference value: 1.07 %); type: functional
[6] = tested on: HCT-116; assay: Induction of apoptosis in human HCT-116 assessed as necrotic cells at 2 uM incubated for 24 hrs Annexin V FITC/PI double staining based flow cytometry (reference value: 0.94 %); type: functional
[7] = tested on: HCT-116; assay: Induction of apoptosis in human HCT-116 assessed as viable cells at 1 uM pretreated with Z-VAD-FMK for 30 mins followed by compound addition and measured after 24 hrs by Annexin V-FITC/PI double staining based flow cytometry (reference value: 90.8%); type: functional; conditions: read-out: Activity
[8] = tested on: HCT-116; assay: Induction of apoptosis in human HCT-116 assessed as necrotic cells at 1 uM pretreated with Z-VAD-FMK for 30 mins followed by compound addition and measured after 24 hrs by Annexin V-FITC/PI double staining based flow cytometry (reference value: 0.84 %); type: functional
[9] = tested on: HCT-116; assay: Induction of apoptosis in human HCT-116 assessed as viable cells at 2 uM pretreated with Z-VAD-FMK for 30 mins followed by compound addition and measured after 24 hrs by Annexin V-FITC/PI double staining based flow cytometry (reference value: 90.8%); type: functional; conditions: read-out: Activity
[10] = tested on: HCT-116; assay: Induction of apoptosis in human HCT-116 assessed as early apoptotic cells at 2 uM pretreated with Z-VAD-FMK for 30 mins followed by compound addition and measured after 24 hrs by Annexin V-FITC/PI double staining based flow cytometry (reference value: 0.95%); type: functional
[11] = tested on: HCT-116; assay: Induction of apoptosis in human HCT-116 assessed as late apoptotic cells at 2 uM pretreated with Z-VAD-FMK for 30 mins followed by compound addition and measured after 24 hrs by Annexin V-FITC/PI double staining based flow cytometry (reference value: 7.43%); type: functional
[12] = tested on: HCT-116; assay: Antiproliferative activity against ATG5 knockout human HCT-116 cells assessed as inhibition of cell viability incubated for 24 hrs by CCK8 assay; type: functional, cell-based; conditions: HCT-116, 24 h
[13] = tested on: HCT-116; assay: Induction of autophagy in ATG5 knockout human HCT-116 cells assessed as increase in LC3-II expression at 1 to 2 uM incubated for 24 hrs by Western blot analysis; type: functional, cell-based; conditions: dose 1-2 µM
[14] = tested on: HCT-116; assay: Effect on PARP expression level in p53 knockout human HCT-116 cells at 1 to 2 uM incubated for 24 hrs by Western blot analysis; type: functional, cell-based; conditions: dose 1-2 µM
[15] = tested on: HCT-116; assay: Induction of autophagy in human HCT-116 cells transfected with tandem mRFP-GFP-LC3 plasmid assessed as increase in LC3-II accumulation incubated for 24 hrs by Western blot analysis; type: functional, cell-based; conditions: dose 0.5-20 µM
[16] = tested on: CT26; assay: Antitumor activity against mouse CT26 cells implanted in female BALB/c mouse assessed as reduction in Ki67 expression at 1 to 2 mg/kg administrated once every 3 days for 18 days by immunohistochemistry analysis; type: functional, organism-based; conditions: dose 1-2 mg/kg, time 18.0 day
[17] = Toxicity in female BALB/c mouse implanted with mouse CT26 cells assessed as change in liver morphology at 1 to 2 mg/kg administrated once every 3 days for 18 days by H&E staining based analysis; type: organism-based; conditions: in vivo, 432 h, dose 1-2 mg/kg, time 18 day
[18] = Toxicity in female BALB/c mouse implanted with mouse CT26 cells assessed as change in spleen morphology at 1 to 2 mg/kg administrated once every 3 days for 18 days by H&E staining based analysis; type: organism-based; conditions: in vivo, 432 h, dose 1-2 mg/kg, time 18 day
[19] = Toxicity in female BALB/c mouse implanted with mouse CT26 cells assessed as change in lung morphology at 1 to 2 mg/kg administrated once every 3 days for 18 days by H&E staining based analysis; type: organism-based; conditions: in vivo, 432 h, dose 1-2 mg/kg, time 18 day
[20] = tested on: HCT-116; assay: Antiproliferative activity against human HCT-116 assessed as inhibition of cell viability at 0.5 to 2 uM by CCK8 method; type: functional, cell-based; conditions: dose 0.5-2 µM, time <= 7.0 day
[21] = tested on: HCT-116; assay: Induction of morphological changes in human HCT-116 cells assessed as suppression of cell growth at 0.5 to 2 uM by microscopic analysis; type: functional, cell-based; conditions: dose 0.5-2 µM
[22] = tested on: HCT-116; assay: Induction of morphological changes in human HCT-116 cells assessed as appearance of rounder cells at 0.5 to 2 uM by microscopic analysis; type: functional, cell-based; conditions: dose 0.5-2 µM
[23] = tested on: HCT-116; assay: Induction of morphological changes in human HCT-116 cells assessed as decrease in adherence to culture dish at 0.5 to 2 uM by microscopic analysis; type: functional, cell-based; conditions: dose 0.5-2 µM
[24] = tested on: HCT-116; assay: Induction of apoptosis in human HCT-116 cells assessed as effect on cleaved caspase-3 expression level at 0.5 to 2 uM incubated for 24 hrs by Western blot analysis; type: functional, cell-based; conditions: dose 0.5-2 µM
[25] = tested on: HCT-116; assay: Induction of apoptosis in human HCT-116 cells assessed as effect on cleaved caspase-8 expression level at 0.5 to 2 uM incubated for 24 hrs by Western blot analysis; type: functional, cell-based; conditions: dose 0.5-2 µM
[26] = tested on: HCT-116; assay: Effect on C-PARP expression level in Bax knockout human HCT-116 cells at 1 to 2 uM incubated for 24 hrs by Western blot analysis; type: functional, cell-based; conditions: dose 1-2 µM
[27] = tested on: HCT-116; assay: Effect on caspase 3 expression level in Bax knockout human HCT-116 cells at 1 to 2 uM incubated for 24 hrs by Western blot analysis; type: functional, cell-based; conditions: dose 1-2 µM
[28] = tested on: HCT-116; assay: Effect on cleaved caspase 3 expression level in Bax knockout human HCT-116 cells at 1 to 2 uM incubated for 24 hrs by Western blot analysis; type: functional, cell-based; conditions: dose 1-2 µM
[29] = tested on: HCT-116; assay: Induction of autophagy in human HCT-116 cells transfected with mRFP-GFP-LC3B assessed as autophagolysosome formation by measuring increase in mRFP to GFP fluorescence ratio at 0.5 to 2 uM incubated for 24 hrs by DAPI staining based fluorescence confocal microscopic analysis; type: functional, cell-based; conditions: dose 0.5-2 µM
[30] = tested on: HCT-116; assay: Induction of autophagy in human HCT-116 cells transfected with tandem mRFP-GFP-LC3 plasmid assessed as reduction in p62 expression by Western blot analysis; type: functional, cell-based; conditions: time 3-48 hrs
[31] = tested on: HCT-116; assay: Induction of autophagy in human HCT-116 cells transfected with tandem mRFP-GFP-LC3 plasmid assessed as increase in LC3-II accumulation by Western blot analysis; type: functional, cell-based; conditions: time 3-48 hrs
[32] = tested on: HCT-116; assay: Upregulation of autophagy pathway related genes expression in human HCT-116 cells at 1 uM incubated for 24 hrs by GSVA enrichment analysis; type: functional, cell-based
[33] = tested on: HCT-116; assay: Inhibition of colony formation in ATG5 knockout human HCT-116 cells assessed as reduction in number of colonies at 1 to 4 uM measured after 24 hrs by crystal violet staining based analysis; type: functional, cell-based; conditions: dose 1-4 µM

## CCN(CC)CCCNCc1cc2c3ccccc3n(CCCc3ccccc3)c2c(CNCCCN(CC)CC)n1
[1]
  IC50: 4.45 µM
[2]
  IC50: 2.65 µM
[3]
  IC50: 4.08 µM
[4]
  Activity: 2.19%
[5]
  Activity: 2.78%
[6]
  Activity: 2.86%
[7]
  viability at 1 µM: 83.7%
[8]
  Activity: 2.2%
[9]
  viability at 2 µM: 82.3%
[10]
  Activity: 2.28%
[11]
  Activity: 13.7%
[12]
  IC50: 6.62 µM
[13]
  Activity: inactive
[14]
  Activity: inactive
[15]
  Activity: Dose-dependent-effect; Transformation Of Lc3-I To Lc3-Ii Observed
[16]
  Activity: Active
[17]
  Activity: Non-toxic
[18]
  Activity: Non-toxic
[19]
  Activity: Non-toxic
[20]
  Activity: Time-dependent-effect
[21]
  Activity: Active
[22]
  Activity: Active
[23]
  Activity: Active
[24]
  Activity: inactive
[25]
  Activity: inactive
[26]
  Activity: inactive
[27]
  Activity: inactive
[28]
  Activity: inactive
[29]
  Activity: Active
[30]
  Activity: Time-dependent-effect
[31]
  Activity: Time-dependent-effect
[32]
  Activity: Active
[33]
  inhibition: Active; Insignificant Decrease In Number Of Colonies Observed
